# Results published in US8420823B2, “Long-chain fatty acyl elongase inhibitor comprising arylsulfonyl derivative as active ingredient” (MSD K.K., priority 2008, dated 2013).
# Structures can show the parent of a compound that is named as a salt.
# Molecular target: T1, human LCE (Homo sapiens, UniProt Q9H5J4)
# T1 sequence (Q9H5J4 1-265): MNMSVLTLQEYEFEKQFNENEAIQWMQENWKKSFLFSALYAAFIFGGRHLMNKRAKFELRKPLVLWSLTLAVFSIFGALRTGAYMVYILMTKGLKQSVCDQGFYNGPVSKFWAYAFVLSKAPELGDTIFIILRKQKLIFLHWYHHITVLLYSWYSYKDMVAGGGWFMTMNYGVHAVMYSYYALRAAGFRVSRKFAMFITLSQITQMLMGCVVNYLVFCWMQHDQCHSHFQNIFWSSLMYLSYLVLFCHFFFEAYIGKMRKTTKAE
# Test: LCE enzyme activity-inhibitory test
# Format: biochemical
# Settings: [14C]-malonyl CoA / palmitoyl CoA substrate, 37° C., 90 minutes
# Protocol: Pharmacological Test Example 1 (LCE Enzyme Activity-inhibitory Test)
# A test compound was dissolved in dimethyl sulfoxide (DMSO to be 10 mM), and then diluted with DMSO to prepare a 1000-fold concentrated solution of the test concentration. An improved Moon et al's method (J. Biol. Chem., Vol. 276, pp. 45358-45366, 2001) was employed for the LCE enzyme activity-inhibitor test. Concretely, the diluted compound was applied to a 96-well assay plate (Corning, 96-well assay block) in an amount of 1.0 μL/well; 50 μL of a phosphate buffer solution (100 mM potassium phosphate buffer, pH 6.5), and 25 μL of a substrate solution (100 mM potassium phosphate buffer (pH 6.5), 4.0 μM rotenone, 80 μM fatty acid-free bovine serum albumin, 160 μM palmitoyl CoA, 80 μM malonyl CoA, 3.5 μM [^14C]-malonyl CoA (1.92 GBq/mmol, by Amersham)) were added to each well; 25 μL of an enzyme solution (100 mM potassium phosphate buffer (pH 6.5), 100 μg/mL human LCE) was added thereto; the top of the plate was airtightly sealed up; and this was incubated with gently shaking and stirring at 37° C. for 90 minutes. Next, 100 μL of 5 M hydrochloric acid was added to each well, and the assay plate was stirred at room temperature for 5 minutes to stop the enzyme reaction with hydrolyzing the acyl CoA. Next, the enzyme reaction solution in each well was adsorbed by each well of a 96-well GF/C filter plate (Perkin Elmer Unifilter 96 GF/C); the individual wells were washed with water to remove the non-adsorbed malonyl CoA; and the GF/C filter plate was dried at 50° C. for 60 minutes. Next, 30 μL of a scintillator (Perkin Elmer Microscinti 0) was added to each well; then the top of the plate was sealed up; and the fixed [^14C] radioactivity was measured with a microplate scintillation counter (Perkin Elmer TopCount) to be the enzyme activity. The human LCE enzyme-inhibitory activity of the test compound was calculated, based on the radioactivity of the DMSO-added well with no test compound therein as a control.
row,Structure (SMILES),IC50 [nM]
1,"CC(C)c1ccc(NC(=O)c2cccc(S(=O)(=O)N3CCCC(C(N)=O)C3)c2)cc1 (stereo not shown) [Example 34, 1-[(3-{[(4-Isopropylphenyl)amino]carbonyl]phenyl)sulfonyl}piperidine-3-carboxamide]",53
2,"CC(C)c1ccc(NC(=O)c2cccc(S(=O)(=O)N3CCC[C@@H](O)C3)c2)cc1 [Example 36, 3-{[(3R)-3-hydroxypiperidin-1-yl]sulfonyl}-N-(4-isopropylphenyl)benzamide]",81
3,"CC(C)c1ccc(NC(=O)c2cccc(S(=O)(=O)N3CCCC(CO)C3)c2)cc1 (stereo not shown) [Example 37, 3-{[3-(hydroxymethyl)piperidin-1-yl]sulfonyl}-N-(4-isopropylphenyl)benzamide]",66
4,"CC(C)c1ccc(NC(=O)c2cccc(S(=O)(=O)NC3CCCCC3)c2)cc1 [Example 38, 3-[(Cyclohexylamino)sulfonyl]-N-(4-isopropylphenyl)benzamide]",1000
5,"CC(C)c1ccc(NC(=O)c2cccc(S(=O)(=O)Nc3ccccc3)c2)cc1 [Example 39, 3-(Anilinosulfonyl)-N-(4-isopropylphenyl)benzamide]",5200
6,"COC[C@H]1CCCN1S(=O)(=O)c1cccc(C(=O)Nc2ccc(C(C)C)cc2)c1 [Example 40, N-(4-Isopropylphenyl)-3-{[(2R)-2-(methoxymethyl)pyrrolidin-1-yl]sulfonyl}benzamide]",8000
7,"COc1ccccc1NC(=O)c1cccc(S(=O)(=O)N2CCC[C@@H](O)C2)c1 [Example 41, 3-{[(3R)-3-hydroxypiperidin-1-yl]sulfonyl}-N-(2-methoxyphenyl)benzamide]",5100
8,"COc1ccccc1NC(=O)c1cccc(S(=O)(=O)N2CCCC(CO)C2)c1 (stereo not shown) [Example 42, 3-{[3-(hydroxymethyl)piperidin-1-yl]sulfonyl}-N-(2-methoxyphenyl)benzamide]",500
9,"COc1ccccc1NC(=O)c1cccc(S(=O)(=O)N2CCCC(C(N)=O)C2)c1 (stereo not shown) [Example 43, 1-[(3-{[(2-methoxyphenyl)amino]carbonyl]phenyl)sulfonyl}piperidine-3-carboxamide]",530
10,"COc1ccc(NC(=O)c2cccc(S(=O)(=O)NCCCCC(=O)O)c2)cc1 [Example 44, 5-{[(3-{[(4-methoxyphenyl)amino]carbonyl}phenyl)sulfonyl]amino}pentanoic acid]",15000
11,"COc1ccc(NC(=O)c2cccc(S(=O)(=O)NC(C)(C)C)c2)cc1 [Example 45, 3-[(Tert-butylamino)sulfonyl]-N-(4-methoxyphenyl)benzamide]",10000
12,"COc1ccc(NC(=O)c2cccc(S(=O)(=O)N3CCCCC3)c2)cc1 [Example 46, N-(4-methoxyphenyl)-3-(piperidin-1-ylsulfonyl)benzamide]",790
13,"COc1cccnc1NC(=O)c1cccc(S(=O)(=O)N2CCOCC2)c1 [Example 47, N-(3-methoxypyridin-2-yl)-3-(morpholin-4-ylsulfonyl)benzamide]",1400
14,"COc1cccnc1NC(=O)c1cccc(S(=O)(=O)N2CCC[C@@H]2C)c1 [Example 48, N-(3-methoxypyridin-2-yl)-3-{[(2S)-2-methylpyrrolidin-1-yl]sulfonyl}benzamide]",210
15,"COc1cccnc1NC(=O)c1cccc(S(=O)(=O)N2CC3CCC2C3)c1 (stereo not shown) [Example 49, 3-(2-Azabicyclo [2.2.1]hept-2-ylsulfonyl)-N-(3-methoxypyridin-2-yl)benzamide]",67
16,"COc1cccnc1NC(=O)c1cccc(S(=O)(=O)N2CCCC(c3nc4ccccc4[nH]3)C2)c1 (stereo not shown) [Example 50, 3-{[3-(1H-benzimidazol-2-yl)piperidin-1-yl]sulfonyl}-N-(3-methoxypyridin-2-yl)benzamide]",53
17,"COc1cccnc1NC(=O)c1cccc(S(=O)(=O)N2CC3CCC2CC3)c1 [Example 51, 3-(2-Azabicyclo[2.2.2]oct-2-ylsulfonyl)-N-(3-methoxypyridin-2-yl)benzamide]",330

row,Structure (SMILES),IC50 [nM]
1,"COc1cccnc1NC(=O)c1cccc(S(=O)(=O)N2C3CCC2CC3)c1 [Example 52, 3-(7-Azabicyclo[2.2.1]hept-7-ylsulfonyl)-N-(3-methoxypyridin-2-yl)benzamide]",930
2,"COc1cccnc1NC(=O)c1cccc(S(=O)(=O)N2C[C@H]3C[C@@H]2CO3)c1 [Example 53, N-(3-methoxypyridin-2-yl)-3-[(1R,4R)-2-oxa-5-azabicyclo[2.2.1]hept-5-ylsulfonyl]benzamide]",7600
3,"COc1cccnc1NC(=O)c1cccc(S(=O)(=O)N2C3CCCC2CC3)c1 [Example 54, 3-(8-Azabicyclo[3.2.1]oct-8-ylsulfonyl)-N-(3-methoxypyridin-2-yl)benzamide]",1600
4,"CCOC(=O)C1CCCN(S(=O)(=O)c2cccc(C(=O)Nc3ncccc3OC)c2)C1 (stereo not shown) [Example 55, Ethyl 1-[(3-{[(3-methoxypyridin-2-yl)amino]carbonyl}phenyl)sulfonyl]piperidine-3-carboxylate]",310
5,"COc1cccnc1NC(=O)c1cccc(S(=O)(=O)N2CCCC(C(=O)O)C2)c1 (stereo not shown) [Example 56, 1-[(3-{[(3-Methoxypyridin-2-yl)amino]carbonyl}phenyl)sulfonyl]piperidine-3-carboxylic acid]",3200
6,"COc1cccnc1NC(=O)c1cccc(S(=O)(=O)N2CCCC(C(N)=O)C2)c1 (stereo not shown) [Example 57, 1-[(3-{[(3-methoxypyridin-2-yl)amino]carbonyl}phenyl)sulfonyl]piperidine-3-carboxamide]",830
7,"CC(C)Oc1ccc(NC(=O)c2cccc(S(=O)(=O)N3CCCC(C(N)=O)C3)c2)nc1 (stereo not shown) [Example 58, 1-[(3-{[(5-Isopropoxypyridin-2-yl)amino]carbonyl}phenyl)sulfonyl]piperidine-3-carboxamide]",160
8,"CC(C)Oc1ccc(NC(=O)c2cccc(S(=O)(=O)N3CCC[C@H](C(N)=O)C3)c2)nc1 [Example 59, (3S)-1-[(3-{[(5-isopropoxypyridin-2-yl)amino]carbonyl}phenyl)sulfonyl]piperidine-3-carboxamide]",110
9,"CC(C)Oc1ccc(NC(=O)c2cccc(S(=O)(=O)N3CCC[C@@H](C(N)=O)C3)c2)nc1 [Example 59′, (3R)-1-[(3-{[(5-isopropoxypyridin-2-yl)amino]carbonyl}phenyl)sulfonyl]piperidine-3-carboxamide]",3000
10,"CNC(=O)C1CCCN(S(=O)(=O)c2cccc(C(=O)Nc3ncccc3OC)c2)C1 (stereo not shown) [Example 60, 1-[(3-{[(3-methoxypyridin-2-yl)amino]carbonyl}phenyl)sulfonyl]-N-methylpiperidine-3-carboxamide]",1100
11,"COc1cccnc1NC(=O)c1cccc(S(=O)(=O)N2CCCC(C(=O)NCc3ccccc3)C2)c1 (stereo not shown) [Example 61, N-benzyl-1-[(3-{[(3-methoxypyridin-2-yl)amino]carbonyl}phenyl)sulfonyl]piperidine-3-carboxamide]",54
12,"COc1cccnc1NC(=O)c1cccc(S(=O)(=O)N2CCCC(C(=O)OCc3ccccc3)C2)c1 (stereo not shown) [Example 62, Benzyl 1-[(3-{[(3-methoxypyridin-2-yl)amino]carbonyl}phenyl)sulfonyl]piperidine-3-carboxylate]",93
13,"CC(C)Oc1cc(NC(=O)c2cccc(S(=O)(=O)N3CCOCC3)c2)[nH]n1 [Example 63, 3-Isopropoxy-5-{[3-(morpholin-4-ylsulfonyl)benzoyl]amino}-1H-pyrazole hydrochloride]",18
14,"CC(C)Oc1cc(NC(=O)c2cccc(S(=O)(=O)N3CCCC3C)c2)[nH]n1 (stereo not shown) [Example 64, 3-Isopropoxy-5-({3-[(2-methylpyrrolidin-1-yl)sulfonyl]benzoyl}amino)-1H-pyrazole hydrochloride]",5
15,"CC(C)Oc1cc(NC(=O)c2cccc(S(=O)(=O)N3CCCC(CO)C3)c2)[nH]n1 (stereo not shown) [Example 65, 5-[(3-{[3-(hydroxymethyl)piperidin-1-yl]sulfonyl}benzoyl)amino]-3-isopropoxy-1H-pyrazole hydrochloride]",5.9
16,"CC(C)Oc1cc(NC(=O)c2cccc(S(=O)(=O)N3CCCC(O)C3)c2)[nH]n1 (stereo not shown) [Example 66, 5-({3-[(3-Hydroxypiperidin-1-yl)sulfonyl}benzoyl]amino)-3-isopropoxy-1H-pyrazole hydrochloride]",28
17,"CC(C)Oc1cc(NC(=O)c2cccc(S(=O)(=O)N3CCC(F)CC3)c2)[nH]n1 [Example 67, 5-({3-[(4-fluoropiperidin-1-yl)sulfonyl]benzoyl}amino)-3-isopropoxy-1H-pyrazole hydrochloride]",10
